# According to paper PMC5513037, “Examining the influence of specificity ligands and ATP-competitive ligands on the overall effectiveness of bivalent kinase inhibitors” (Proteome Science, 2017):
# pIC50: −log10 of the molar value.
# Key:
# Experiment in all cases: KAM-matrix competition in K562 lysate;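 on 0.001 uM KAM: median log10 fold change of treatment over DMSO control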;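 on 0.01 uM KAM: median log10 fold change of treatment over DMSO control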;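 on 0.1 uM KAM: median log10 fold change of treatment over DMSO control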;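 on 1 uM KAM: median log10 fold change of treatment over DMSO control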;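 on 10 uM KAM: median log10 fold change of treatment over DMSO control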
# Assay type in all cases: binding
# AURKB = biological target: T1, AURKB (Homo sapiens, UniProt Q96GD4)
# T1 construct: endogenous in cells; host or cells: K562
# T1 sequence (Q96GD4 whole entry): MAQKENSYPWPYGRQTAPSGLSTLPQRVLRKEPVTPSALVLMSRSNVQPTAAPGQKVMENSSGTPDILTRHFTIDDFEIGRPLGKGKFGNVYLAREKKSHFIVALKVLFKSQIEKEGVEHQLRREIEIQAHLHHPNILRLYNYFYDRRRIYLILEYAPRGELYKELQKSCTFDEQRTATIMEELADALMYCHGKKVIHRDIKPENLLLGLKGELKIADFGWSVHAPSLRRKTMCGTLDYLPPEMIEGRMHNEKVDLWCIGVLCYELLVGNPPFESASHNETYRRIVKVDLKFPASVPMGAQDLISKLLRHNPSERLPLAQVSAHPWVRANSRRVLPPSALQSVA
# Procedure: (§1) Supplement 12953_2017_125_MOESM1_ESM.zip/MS_Supp Info.xlsx, sheet "KAM" | column: 10 uM KAM; 1 uM KAM; 0.1 uM KAM; 0.01 uM KAM; 0.001 uM KAM; RB50
# IGF1R = biological target: T2, IGF1R (Homo sapiens, UniProt P08069)
# T2 construct: K562 cell pellets were thawed on ice and resuspended in cold Lysis buffer; endogenous in cells; host or cells: K562
# T2 sequence (P08069 741-1367 limits assumed): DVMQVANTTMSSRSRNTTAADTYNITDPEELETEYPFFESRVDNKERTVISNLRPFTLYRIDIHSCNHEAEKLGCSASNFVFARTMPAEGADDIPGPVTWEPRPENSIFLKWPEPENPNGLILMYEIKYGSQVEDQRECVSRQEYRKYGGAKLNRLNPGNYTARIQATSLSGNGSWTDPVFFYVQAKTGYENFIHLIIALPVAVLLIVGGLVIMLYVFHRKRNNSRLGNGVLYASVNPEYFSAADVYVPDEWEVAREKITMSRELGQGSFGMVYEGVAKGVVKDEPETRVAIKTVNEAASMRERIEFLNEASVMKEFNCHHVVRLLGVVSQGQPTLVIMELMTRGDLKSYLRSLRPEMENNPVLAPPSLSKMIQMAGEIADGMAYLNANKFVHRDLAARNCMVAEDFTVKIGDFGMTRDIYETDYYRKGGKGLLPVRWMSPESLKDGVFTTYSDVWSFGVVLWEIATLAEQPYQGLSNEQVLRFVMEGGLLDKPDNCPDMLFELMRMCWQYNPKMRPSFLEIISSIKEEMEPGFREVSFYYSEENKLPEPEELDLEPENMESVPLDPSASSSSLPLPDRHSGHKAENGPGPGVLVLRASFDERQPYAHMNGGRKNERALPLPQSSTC
# T2 sequence (P08069 31-736 partner limits assumed): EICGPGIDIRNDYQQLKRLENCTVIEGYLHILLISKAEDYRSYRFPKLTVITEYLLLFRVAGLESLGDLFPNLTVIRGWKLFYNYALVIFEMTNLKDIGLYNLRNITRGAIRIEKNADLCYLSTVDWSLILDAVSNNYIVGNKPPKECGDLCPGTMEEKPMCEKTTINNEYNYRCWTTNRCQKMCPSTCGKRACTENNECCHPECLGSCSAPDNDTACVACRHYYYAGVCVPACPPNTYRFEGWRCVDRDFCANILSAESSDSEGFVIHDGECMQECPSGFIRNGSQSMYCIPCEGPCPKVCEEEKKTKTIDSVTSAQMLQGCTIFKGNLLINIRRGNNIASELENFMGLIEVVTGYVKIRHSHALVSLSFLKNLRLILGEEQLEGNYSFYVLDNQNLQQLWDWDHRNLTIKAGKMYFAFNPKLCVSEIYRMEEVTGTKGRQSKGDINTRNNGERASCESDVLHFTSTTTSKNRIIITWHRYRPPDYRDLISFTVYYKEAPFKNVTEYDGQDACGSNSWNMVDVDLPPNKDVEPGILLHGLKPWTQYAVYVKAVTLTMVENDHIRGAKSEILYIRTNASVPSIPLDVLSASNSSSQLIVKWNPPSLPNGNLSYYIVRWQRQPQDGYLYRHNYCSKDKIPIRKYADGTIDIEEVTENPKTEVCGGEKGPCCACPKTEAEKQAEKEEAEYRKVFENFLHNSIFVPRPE
# Procedure: as §1
# MINK1 = biological target: T3, MINK1 (Homo sapiens, UniProt Q8N4C8)
# T3 construct: endogenous in cells; host or cells: K562
# T3 sequence (Q8N4C8 whole entry): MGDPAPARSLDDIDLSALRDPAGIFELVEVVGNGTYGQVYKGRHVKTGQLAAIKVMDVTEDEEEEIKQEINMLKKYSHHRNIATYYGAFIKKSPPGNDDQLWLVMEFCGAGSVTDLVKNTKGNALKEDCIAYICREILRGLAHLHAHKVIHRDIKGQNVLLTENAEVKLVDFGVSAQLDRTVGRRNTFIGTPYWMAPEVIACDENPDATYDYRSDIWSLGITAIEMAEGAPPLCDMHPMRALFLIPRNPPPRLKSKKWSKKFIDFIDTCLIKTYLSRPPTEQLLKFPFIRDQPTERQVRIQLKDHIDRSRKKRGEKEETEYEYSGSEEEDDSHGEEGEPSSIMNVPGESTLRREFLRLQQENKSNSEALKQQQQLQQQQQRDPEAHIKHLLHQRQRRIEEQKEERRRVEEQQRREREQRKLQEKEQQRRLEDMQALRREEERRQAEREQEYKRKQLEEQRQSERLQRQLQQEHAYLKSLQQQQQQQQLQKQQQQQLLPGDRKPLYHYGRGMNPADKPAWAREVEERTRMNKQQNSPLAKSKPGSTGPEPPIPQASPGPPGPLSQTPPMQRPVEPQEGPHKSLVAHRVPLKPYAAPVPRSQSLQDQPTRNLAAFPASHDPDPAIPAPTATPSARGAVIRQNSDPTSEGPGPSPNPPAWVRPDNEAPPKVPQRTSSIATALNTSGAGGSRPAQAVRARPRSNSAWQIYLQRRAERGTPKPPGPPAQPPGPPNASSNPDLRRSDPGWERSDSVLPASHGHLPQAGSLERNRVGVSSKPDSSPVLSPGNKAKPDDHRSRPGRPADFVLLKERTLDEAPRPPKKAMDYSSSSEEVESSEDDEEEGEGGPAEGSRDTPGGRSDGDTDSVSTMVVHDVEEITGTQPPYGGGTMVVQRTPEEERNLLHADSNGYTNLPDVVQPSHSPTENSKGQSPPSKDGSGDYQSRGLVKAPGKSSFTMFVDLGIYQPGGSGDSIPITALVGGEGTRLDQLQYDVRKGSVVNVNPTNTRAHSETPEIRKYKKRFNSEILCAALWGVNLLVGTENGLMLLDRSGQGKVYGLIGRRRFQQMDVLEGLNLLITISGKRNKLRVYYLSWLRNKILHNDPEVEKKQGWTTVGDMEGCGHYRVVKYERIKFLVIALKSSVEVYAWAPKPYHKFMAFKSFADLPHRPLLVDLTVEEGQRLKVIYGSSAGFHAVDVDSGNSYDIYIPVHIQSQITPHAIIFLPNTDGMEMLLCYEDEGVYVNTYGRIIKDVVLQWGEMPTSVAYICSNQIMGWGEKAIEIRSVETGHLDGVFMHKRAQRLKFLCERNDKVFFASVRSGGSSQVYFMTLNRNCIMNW
# Procedure: as §1
# MST1R = biological target: T4, MST1R (Homo sapiens, UniProt Q04912);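 on 0.001 uM KAM: median log10 fold change of treatment over DMSO control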;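 on 0.01 uM KAM: median log10 fold change of treatment over DMSO control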;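 on 0.1 uM KAM: median log10 fold change of treatment over DMSO control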;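 on 1 uM KAM: median log10 fold change of treatment over DMSO control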;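 on 10 uM KAM: median log10 fold change of treatment over DMSO control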
# T4 construct: endogenous in cells; host or cells: K562
# T4 sequence (Q04912 25-1400): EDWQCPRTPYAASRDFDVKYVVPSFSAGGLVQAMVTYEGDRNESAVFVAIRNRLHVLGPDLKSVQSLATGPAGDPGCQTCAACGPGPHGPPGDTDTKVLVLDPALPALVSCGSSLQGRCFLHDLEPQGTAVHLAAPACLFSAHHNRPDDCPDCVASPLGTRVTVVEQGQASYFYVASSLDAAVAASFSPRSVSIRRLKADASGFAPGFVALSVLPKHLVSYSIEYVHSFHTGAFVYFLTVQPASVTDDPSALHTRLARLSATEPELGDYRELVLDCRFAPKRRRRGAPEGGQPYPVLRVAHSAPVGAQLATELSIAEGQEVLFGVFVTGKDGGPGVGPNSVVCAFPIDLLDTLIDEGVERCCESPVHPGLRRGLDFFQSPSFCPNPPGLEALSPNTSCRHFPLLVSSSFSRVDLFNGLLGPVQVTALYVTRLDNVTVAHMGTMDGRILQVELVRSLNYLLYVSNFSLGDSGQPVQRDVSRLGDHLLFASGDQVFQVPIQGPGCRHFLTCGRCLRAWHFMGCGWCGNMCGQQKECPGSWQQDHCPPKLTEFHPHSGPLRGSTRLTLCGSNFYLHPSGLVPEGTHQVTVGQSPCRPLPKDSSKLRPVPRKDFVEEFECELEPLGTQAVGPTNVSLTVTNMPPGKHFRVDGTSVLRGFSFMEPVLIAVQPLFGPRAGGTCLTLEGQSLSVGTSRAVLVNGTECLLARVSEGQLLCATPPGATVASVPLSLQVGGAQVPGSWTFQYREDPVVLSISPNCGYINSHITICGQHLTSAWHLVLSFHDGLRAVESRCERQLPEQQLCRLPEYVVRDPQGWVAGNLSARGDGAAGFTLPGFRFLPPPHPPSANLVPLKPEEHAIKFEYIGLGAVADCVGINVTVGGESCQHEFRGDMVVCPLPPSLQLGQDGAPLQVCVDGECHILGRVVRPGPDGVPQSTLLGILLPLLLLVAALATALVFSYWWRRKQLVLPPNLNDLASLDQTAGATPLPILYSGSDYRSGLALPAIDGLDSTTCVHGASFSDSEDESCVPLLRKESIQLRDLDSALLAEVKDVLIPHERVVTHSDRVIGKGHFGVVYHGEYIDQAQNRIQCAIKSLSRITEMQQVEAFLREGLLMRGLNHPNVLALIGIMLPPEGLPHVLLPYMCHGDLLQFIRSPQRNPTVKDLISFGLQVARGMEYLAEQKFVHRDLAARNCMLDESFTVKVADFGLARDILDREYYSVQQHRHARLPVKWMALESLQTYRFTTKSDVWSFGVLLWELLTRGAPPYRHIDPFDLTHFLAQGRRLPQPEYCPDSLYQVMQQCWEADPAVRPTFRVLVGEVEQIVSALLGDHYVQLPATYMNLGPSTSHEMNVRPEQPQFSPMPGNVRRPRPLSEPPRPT
# Procedure: as §1
# NEK2 = biological target: T5, NEK2 (Homo sapiens, UniProt P51955);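 on 0.001 uM KAM: median log10 fold change of treatment over DMSO control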;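 on 0.01 uM KAM: median log10 fold change of treatment over DMSO control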;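 on 0.1 uM KAM: median log10 fold change of treatment over DMSO control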;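 on 1 uM KAM: median log10 fold change of treatment over DMSO control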;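 on 10 uM KAM: median log10 fold change of treatment over DMSO control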
# T5 construct: endogenous in cells; host or cells: K562
# T5 sequence (P51955 1-445): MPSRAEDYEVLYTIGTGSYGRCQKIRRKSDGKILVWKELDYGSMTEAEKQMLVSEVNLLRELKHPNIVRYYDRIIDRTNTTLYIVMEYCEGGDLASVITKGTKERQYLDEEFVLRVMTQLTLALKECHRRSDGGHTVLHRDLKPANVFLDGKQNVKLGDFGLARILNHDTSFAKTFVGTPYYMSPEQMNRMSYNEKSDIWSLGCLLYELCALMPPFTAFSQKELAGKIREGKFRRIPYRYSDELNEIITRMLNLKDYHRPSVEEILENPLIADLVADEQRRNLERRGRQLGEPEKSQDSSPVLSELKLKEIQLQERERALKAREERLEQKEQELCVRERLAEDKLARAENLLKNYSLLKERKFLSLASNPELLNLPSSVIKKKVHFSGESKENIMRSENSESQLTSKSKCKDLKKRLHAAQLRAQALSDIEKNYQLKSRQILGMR
# Procedure: as §1
# PAK4 = biological target: T6, PAK4 (Homo sapiens, UniProt O96013)
# T6 construct: endogenous in cells; host or cells: K562
# T6 sequence (O96013 whole entry): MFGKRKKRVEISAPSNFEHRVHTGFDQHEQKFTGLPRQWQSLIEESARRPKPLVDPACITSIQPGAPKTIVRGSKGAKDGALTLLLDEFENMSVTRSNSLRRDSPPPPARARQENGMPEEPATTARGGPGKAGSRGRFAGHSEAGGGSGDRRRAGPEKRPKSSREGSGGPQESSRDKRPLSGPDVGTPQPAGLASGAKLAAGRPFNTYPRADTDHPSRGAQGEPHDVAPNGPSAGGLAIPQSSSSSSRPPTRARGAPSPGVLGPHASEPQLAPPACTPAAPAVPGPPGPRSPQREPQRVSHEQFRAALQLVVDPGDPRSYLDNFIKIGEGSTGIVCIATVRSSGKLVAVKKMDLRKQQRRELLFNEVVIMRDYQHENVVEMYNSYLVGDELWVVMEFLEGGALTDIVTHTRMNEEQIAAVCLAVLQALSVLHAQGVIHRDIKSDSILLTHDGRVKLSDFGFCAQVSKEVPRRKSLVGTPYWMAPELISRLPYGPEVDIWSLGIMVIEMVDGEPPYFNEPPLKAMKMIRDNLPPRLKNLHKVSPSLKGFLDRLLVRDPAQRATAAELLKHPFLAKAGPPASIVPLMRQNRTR
# Procedure: as §1
# SPEG = biological target: T7, SPEG (Homo sapiens, UniProt Q15772);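 on 0.001 uM KAM: median log10 fold change of treatment over DMSO control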;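 on 0.01 uM KAM: median log10 fold change of treatment over DMSO control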;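 on 0.1 uM KAM: median log10 fold change of treatment over DMSO control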;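 on 1 uM KAM: median log10 fold change of treatment over DMSO control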;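 on 10 uM KAM: median log10 fold change of treatment over DMSO control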
# T7 construct: endogenous in cells; host or cells: K562
# Procedure: as §1
# SYK = biological target: T8, SYK (Homo sapiens, UniProt P43405)
# T8 construct: K562 cell pellets were thawed on ice and resuspended in cold Lysis buffer; endogenous in cells; host or cells: K562
# Procedure: as §1
# ULK3 = biological target: T9, ULK3 (Homo sapiens, UniProt Q6PHR2)
# T9 construct: endogenous in cells; host or cells: K562 cell lysate
# T9 sequence (Q6PHR2 1-472): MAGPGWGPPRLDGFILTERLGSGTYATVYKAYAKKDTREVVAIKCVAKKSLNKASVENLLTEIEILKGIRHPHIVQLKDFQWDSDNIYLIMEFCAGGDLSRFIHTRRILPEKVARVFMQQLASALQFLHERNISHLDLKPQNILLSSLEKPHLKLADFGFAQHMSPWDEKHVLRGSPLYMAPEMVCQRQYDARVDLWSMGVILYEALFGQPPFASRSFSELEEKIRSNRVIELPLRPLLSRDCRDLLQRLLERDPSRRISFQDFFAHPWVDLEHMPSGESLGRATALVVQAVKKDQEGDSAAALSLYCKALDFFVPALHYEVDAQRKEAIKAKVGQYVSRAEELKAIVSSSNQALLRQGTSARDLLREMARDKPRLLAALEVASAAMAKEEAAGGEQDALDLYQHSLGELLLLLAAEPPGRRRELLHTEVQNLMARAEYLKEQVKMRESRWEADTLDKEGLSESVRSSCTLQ
# Procedure: as §1
# [1] = read-out: RB50 (the source's name)
# [2] = KAM 0.001-10 uM, read-out: RB50 (the source's name)
structure (smiles),measurement,setting,value
N#CCc1ccc(Nc2nc(NCCCN)cc(Nc3cc(C4CC4)[nH]n3)n2)cc1 [KAM],median Log10 fold change,AURKB; 0.001 uM KAM,0.001732
same,median Log10 fold change,AURKB; 0.01 uM KAM,-0.09106
same,median Log10 fold change,AURKB; 0.1 uM KAM,-0.3265
same,median Log10 fold change,AURKB; 1 uM KAM,-0.4096
same,median Log10 fold change,AURKB; 10 uM KAM,-0.3913
same,pIC50,AURKB; [1],6.86
same,median Log10 fold change,IGF1R; 0.001 uM KAM,-0.01905
same,median Log10 fold change,IGF1R; 0.01 uM KAM,-0.03637
same,median Log10 fold change,IGF1R; 0.1 uM KAM,-0.1832
same,median Log10 fold change,IGF1R; 1 uM KAM,-0.3556
same,median Log10 fold change,IGF1R; 10 uM KAM,-0.4489
same,pIC50,IGF1R; [1],6.16
same,median Log10 fold change,MINK1; 0.001 uM KAM,-0.05922
same,median Log10 fold change,MINK1; 0.01 uM KAM,-0.00678
same,median Log10 fold change,MINK1; 0.1 uM KAM,-0.2189
same,median Log10 fold change,MINK1; 1 uM KAM,-0.4489
same,median Log10 fold change,MINK1; 10 uM KAM,-0.4879
same,pIC50,MINK1; [1],6.48
same,pIC50,MST1R; [2],< 5.00
same,0.001 uM KAM,MST1R; relative to 0 uM KAM = 0,-0.1284
same,0.01 uM KAM,MST1R; relative to 0 uM KAM = 0,-0.04073
same,0.1 uM KAM,MST1R; relative to 0 uM KAM = 0,-0.1983
same,1 uM KAM,MST1R; relative to 0 uM KAM = 0,-0.07265
same,10 uM KAM,MST1R; relative to 0 uM KAM = 0,-0.08067
same,pIC50,NEK2; [2],5.23
same,0.001 uM KAM,NEK2; relative to 0 uM KAM = 0,0.005896
same,0.01 uM KAM,NEK2; relative to 0 uM KAM = 0,0.02457
same,0.1 uM KAM,NEK2; relative to 0 uM KAM = 0,-0.07556
same,1 uM KAM,NEK2; relative to 0 uM KAM = 0,-0.1875
same,10 uM KAM,NEK2; relative to 0 uM KAM = 0,-0.3106
same,median Log10 fold change,PAK4; 0.001 uM KAM,-0.02305
same,median Log10 fold change,PAK4; 0.01 uM KAM,-0.006782
same,median Log10 fold change,PAK4; 0.1 uM KAM,-0.1812
same,median Log10 fold change,PAK4; 1 uM KAM,-0.403
same,median Log10 fold change,PAK4; 10 uM KAM,-0.4884
same,pIC50,PAK4; [1],6.28
same,pIC50,SPEG; [2],< 5.00
same,0.001 uM KAM,SPEG; relative to 0 uM KAM = 0,-0.04699
same,0.01 uM KAM,SPEG; relative to 0 uM KAM = 0,0.03576
same,0.1 uM KAM,SPEG; relative to 0 uM KAM = 0,-0.007872
same,1 uM KAM,SPEG; relative to 0 uM KAM = 0,0.04064
same,10 uM KAM,SPEG; relative to 0 uM KAM = 0,0.01523
same,median Log10 fold change,SYK; 0.001 uM KAM,-0.04062
same,median Log10 fold change,SYK; 0.01 uM KAM,-0.03667
same,median Log10 fold change,SYK; 0.1 uM KAM,-0.2061
same,median Log10 fold change,SYK; 1 uM KAM,-0.3555
same,median Log10 fold change,SYK; 10 uM KAM,-0.3656
same,pIC50,SYK; [1],6.15
same,median Log10 fold change,ULK3; 0.001 uM KAM,0.008102
same,median Log10 fold change,ULK3; 0.01 uM KAM,0.009404
same,median Log10 fold change,ULK3; 0.1 uM KAM,-0.1871
same,median Log10 fold change,ULK3; 1 uM KAM,-0.4491
same,median Log10 fold change,ULK3; 10 uM KAM,-0.5442
same,pIC50,ULK3; [1],6.39
